Assay results: patent EP4610269A1, “UROKINASE PLASMINOGEN ACTIVATOR SURFACE RECEPTOR (UPAR) LIGANDS FOR DIAGNOSTIC OR THERAPEUTIC USE” (3B Pharmaceuticals GmbH, priority 2024, dated 2025)
Like-named read-outs stand apart in the source and are kept apart here. Where a SMILES comes first, the peptide text is derived from it. Bridges are numbered along the chain shown (N, C = ends). [ ]: non-standard residue; d: D form. The star is where a group is joined. CH3O(CH2CH2O)11CH2CH2CO = COCCOCCOCCOCCOCCOCCOCCOCCOCCOCCOCCOCCC(=O)*; DOTA = O=C(O)CN1CCN(CC(=O)O)CCN(CC(=O)*)CCN(CC(=O)O)CC1; Pro(cis-4-F) = O=C(O)[C@@H]1C[C@H](F)CN1; Phe(2-Cl) = N[C@@H](Cc1ccccc1Cl)C(=O)O; Hyp = O=C(O)[C@@H]1C[C@@H](O)CN1; αMeF = C[C@](N)(Cc1ccccc1)C(=O)O; Pentanoyl(4-Me) = CC(C)CCC(=O)*; Cha = N[C@@H](CC1CCCCC1)C(=O)O; Cit = NC(=O)NCCC[C@H](N)C(=O)O; Gly(cPr) = N[C@H](C(=O)O)C1CC1; Aic = NC1(C(=O)O)Cc2ccccc2C1; Butoxycarbonyl = CCCCOC(=O)*; Nle = CCCC[C@H](N)C(=O)O; Orn = NCCC[C@H](N)C(=O)O; Nva = CCC[C@H](N)C(=O)O; Abu = CC[C@H](N)C(=O)O; Dap = NC[C@H](N)C(=O)O; Hexanoyl = CCCCCC(=O)*; Pentanoyl = CCCCC(=O)*; Bz = O=C(c1ccccc1)*

Columns and labels:
human uPAR (uPAR-Fc) = target: T1, human uPAR (uPAR-Fc) (Homo sapiens, UniProt Q03405); test: Surface plasmon resonance (SPR) assay, single cycle kinetics; type: binding; conditions: pKD category for uPAR SPR activity assay, uPAR-Fc on Protein A-Chip, 25°C, read-out: pKD CAT (converted)
T1 construct: comprising amino acids Leu23-Arg303 according to UniProt entry Q03405.1; purchased R&D Systems 10378-UK-100
T1 sequence (Q03405 23-303): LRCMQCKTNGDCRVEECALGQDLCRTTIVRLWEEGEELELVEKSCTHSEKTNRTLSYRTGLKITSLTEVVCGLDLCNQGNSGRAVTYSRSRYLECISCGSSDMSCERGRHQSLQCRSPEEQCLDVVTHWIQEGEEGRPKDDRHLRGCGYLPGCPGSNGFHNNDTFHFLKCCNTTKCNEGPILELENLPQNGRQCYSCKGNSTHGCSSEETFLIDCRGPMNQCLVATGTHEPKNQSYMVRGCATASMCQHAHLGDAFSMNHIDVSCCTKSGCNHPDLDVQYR
How it was run: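 uPAR-Fc (Leu23-Arg303 extracellular domains, human IgG1 Fc) captured on Protein A chip to ~2000 RU; single-cycle kinetics at 25°C in HEPES running buffer pH 7.4 with 0.1% DMSO. KD from double-referenced sensorgrams fitted to 1:1 Langmuir model, reported as pKD.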

[1] = target: T2, uPAR-expressing HEC-265 human endometrial adenocarcinoma cells (Homo sapiens, UniProt Q03405); test: Competitive FACS binding assay; conditions: pIC50 category of FACS binding
T2 construct: Cell surface uPAR-expressing HEC-265 human endometrial adenocarcinoma cells; host or cells: HEC-265
T2 sequence (Q03405 23-335): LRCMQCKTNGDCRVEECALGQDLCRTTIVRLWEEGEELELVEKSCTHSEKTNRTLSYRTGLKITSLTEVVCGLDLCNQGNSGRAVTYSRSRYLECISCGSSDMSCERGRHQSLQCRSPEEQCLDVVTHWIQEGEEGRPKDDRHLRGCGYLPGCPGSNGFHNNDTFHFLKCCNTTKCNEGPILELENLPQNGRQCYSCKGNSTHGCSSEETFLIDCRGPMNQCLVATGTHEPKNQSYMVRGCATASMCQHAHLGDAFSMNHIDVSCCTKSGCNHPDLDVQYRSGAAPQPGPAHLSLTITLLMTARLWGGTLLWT
How it was run: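 Competitive displacement of a 10 nM biotinylated peptide from HEC-265 cells (1 h, 4 °C, PBS/1% BSA), detected via APC-streptavidin by flow cytometry. pIC50 from four-parameter logistic fit of median fluorescence versus concentration.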

| SMILES | Kd (human uPAR (uPAR-Fc); single cycle kinetics) [nM] | IC50 [1] [nM] | Kd (human uPAR (uPAR-Fc)) [nM] |
| --- | --- | --- | --- |
| CCCCC(=O)N[C@H]1CSSC[C@@H](C(N)=O)NC(=O)[C@H](CCC)NC(=O)[C@H]([C@@H](C)CC)NC(=O)[C@@H]2C[C@@H](O)CN2C(=O)[C@@H]2CCCN2C(=O)[C@H](Cc2ccccc2)NC(=O)[C@H](Cc2ccccc2Cl)NC(=O)[C@H](CCC(N)=O)NC(=O)[C@H](CCCNC(=N)N)NC1=O [UPAR-395, Pent-[Cys-Arg-Gln-Ocf-Phe-Pro-Hyp-Ile-Nva-Cys]-NH2] (Pentanoyl-CRQ[Phe(2-Cl)]FP[Hyp]I[Nva]C-NH2; disulfide 1-10) | < 1.58 | ≤ 10 |  |
| CCCCC(=O)N[C@H]1CSSC[C@@H](C(N)=O)NC(=O)[C@H](CC(C)C)NC(=O)[C@H]([C@@H](C)CC)NC(=O)[C@@H]2CCCN2C(=O)[C@@H]2CCCN2C(=O)[C@H](Cc2ccccc2)NC(=O)[C@H](Cc2ccc(O)cc2)NC(=O)[C@H](CCCCNC(=O)CN2CCN(CC(=O)O)CCN(CC(=O)O)CCN(CC(=O)O)CC2)NC(=O)[C@H](CCCNC(N)=O)NC1=O [UPAR-396, Pent-[Cys-Cit-Lys(DOTA)-Tyr-Phe-Pro-Pro-Ile-Leu-Cys]-NH2] (Pentanoyl-C[Cit]K(DOTA)YFPPILC-NH2; disulfide 1-10) | < 1.58 | ≤ 10 |  |
| CC(C)CCC(=O)N[C@H]1CSSC[C@@H](C(N)=O)NC(=O)[C@H](CC(C)C)NC(=O)[C@H](C2CC2)NC(=O)[C@@H](C)NC(=O)[C@@H]2CCCN2C(=O)[C@H](Cc2ccccc2)NC(=O)[C@H](Cc2ccc(O)cc2)NC(=O)[C@H](CCC(N)=O)NC(=O)[C@H](CCCNC(N)=O)NC1=O [UPAR-187, iHex-[Cys-Cit-Gln-Tyr-Phe-Pro-ala-Cpa-Leu-Cys]-NH2] ({Pentanoyl(4-Me)}-C[Cit]QYFP[dA][Gly(cPr)]LC-NH2; disulfide 1-10) |  | ≥ 126 | > 100 |
| CCC[C@@H]1NC(=O)[C@H]([C@@H](C)CC)NC(=O)[C@@H]2C[C@@H](O)CN2C(=O)[C@@H]2CCCN2C(=O)[C@H](Cc2ccccc2)NC(=O)[C@H](Cc2ccc(O)cc2)NC(=O)[C@H](CCC(N)=O)NC(=O)[C@H](CCCNC(=N)N)NC(=O)[C@@H](NC(=O)c2ccccc2)CSSC[C@@H](C(N)=O)NC1=O [UPAR-356, Bz-[Cys-Arg-Gln-Tyr-Phe-Pro-Hyp-Ile-Nva-Cys]-NH2] (Bz-CRQYFP[Hyp]I[Nva]C-NH2; disulfide 1-10) | < 1.58 | ≤ 10 |  |
| CCCC[C@@H]1NC(=O)[C@H](CCCNC(=N)N)NC(=O)[C@H](NC(=O)[C@H](CC(C)C)NC(=O)[C@H](CC(=O)O)NC(C)=O)CSSC[C@@H](C(N)=O)NC(=O)[C@H](CC(C)C)NC(=O)[C@H]([C@@H](C)CC)NC(=O)[C@H](C)NC(=O)[C@@H]2CCCN2C(=O)[C@H](Cc2ccccc2)NC(=O)[C@H](Cc2ccc(O)cc2)NC1=O [UPAR-412, Ac-Asp-Leu-[cys-Arg-Nle-Tyr-Phe-Pro-Ala-Ile-Leu-Cys]-NH2] (Ac-DL[dC]R[Nle]YFPAILC-NH2; disulfide 3-12) | > 100 | ≥ 126 |  |
| CC[C@H](C)[C@@H]1NC(=O)[C@@H]2C[C@@H](O)CN2C(=O)[C@@H]2CCCN2C(=O)[C@H](Cc2ccccc2)NC(=O)[C@H](Cc2ccc(O)cc2)NC(=O)[C@H](CC(=O)O)NC(=O)[C@H](CCCNC(N)=O)NC(=O)[C@@H](NC(=O)CCC(C)C)CSSC[C@@H](C(N)=O)NC(=O)[C@H](CC(C)C)NC1=O [UPAR-410, iHex-[Cys-Cit-Asp-Tyr-Phe-Pro-Hyp-Ile-Leu-Cys]-NHz] ({Pentanoyl(4-Me)}-C[Cit]DYFP[Hyp]ILC-NH2; disulfide 1-10) | < 1.58 | ≤ 10 |  |
| CCCCC(=O)N[C@H]1CSSC[C@@H](C(N)=O)NC(=O)[C@H](CCC)NC(=O)[C@H]([C@@H](C)CC)NC(=O)[C@@H]2C[C@@H](O)CN2C(=O)[C@@H]2CCCN2C(=O)[C@H](Cc2ccccc2)NC(=O)[C@H](Cc2ccc(O)cc2)NC(=O)[C@H](CCCCNC(=O)CN2CCN(CC(=O)O)CCN(CC(=O)O)CCN(CC(=O)O)CC2)NC(=O)[C@H](CCCNC(=O)CCOCCOCCOCCOCCOCCOCCOCCOCCOCCOCCOCCOC)NC1=O [UPAR-383, Pent-[Cys-Orn(mPEG12)-Lys(DOTA)-Tyr-Phe-Pro-Hyp-Ile-Nva-Cys]-NHz] (Pentanoyl-C[Orn](CH3O(CH2CH2O)11CH2CH2CO)K(DOTA)YFP[Hyp]I[Nva]C-NH2; disulfide 1-10) | < 1.58 | ≤ 10 |  |
| CCCCCC(=O)N[C@@H](CCCCNC(=O)CN1CCN(CC(=O)O)CCN(CC(=O)O)CCN(CC(=O)O)CC1)C(=O)N[C@@H](CC(C)C)C(=O)N[C@H]1CSSC[C@@H](C(N)=O)NC(=O)[C@H](CC(C)C)NC(=O)[C@H]([C@@H](C)CC)NC(=O)[C@H](C)NC(=O)[C@@H]2CCCN2C(=O)[C@H](Cc2ccccc2)NC(=O)[C@H](Cc2ccc(O)cc2)NC(=O)[C@H](CCSC)NC(=O)[C@H](CCCNC(=N)N)NC1=O [UPAR-140, Hex-Lys(DOTA)-Leu-[Cys-Arg-Met-Tyr-Phe-Pro-Ala-Ile-Leu-Cys]-NH2] (Hexanoyl-K(DOTA)LCRMYFPAILC-NH2; disulfide 3-12) |  | ≤ 10 | < 1.58 |
| CCCCC(=O)N[C@H]1CSSC[C@@H](C(N)=O)NC(=O)[C@H](CCC)NC(=O)[C@H]([C@@H](C)CC)NC(=O)[C@@H]2C[C@@H](O)CN2C(=O)[C@H](CC2CCCCC2)NC(=O)[C@H](Cc2ccccc2)NC(=O)[C@H](Cc2ccc(O)cc2)NC(=O)[C@H](CCC(N)=O)NC(=O)[C@H](CCCNC(=N)N)NC1=O [UPAR-266, Pent-[Cys-Arg-Gln-Tyr-Phe-Cha-Hyp-Ile-Nva-Cys]-NH2] (Pentanoyl-CRQYF[Cha][Hyp]I[Nva]C-NH2; disulfide 1-10) |  | ≤ 10 | < 1.58 |
| CCCCOC(=O)N[C@H]1CSSC[C@@H](C(N)=O)NC(=O)[C@H](CCC)NC(=O)[C@H]([C@@H](C)CC)NC(=O)[C@@H]2C[C@@H](O)CN2C(=O)[C@@H]2C[C@H](F)CN2C(=O)[C@H](Cc2ccccc2)NC(=O)[C@H](Cc2ccc(O)cc2)NC(=O)[C@H](CNC(=O)CN2CCN(CC(=O)O)CCN(CC(=O)O)CCN(CC(=O)O)CC2)NC(=O)[C@H]([C@@H](C)O)NC1=O [UPAR-455, Butoc-[Cys-Thr-Dap(DOTA)-Tyr-Phe-4Cfp-Hyp-Ile-Nva-Cys]-NH2] (Butoxycarbonyl-CT[Dap](DOTA)YF[Pro(cis-4-F)][Hyp]I[Nva]C-NH2; disulfide 1-10) | < 1.58 | ≤ 10 |  |
| CC[C@H](C)[C@@H]1NC(=O)[C@@H](C)NC(=O)[C@@H]2CCCN2C(=O)[C@H](Cc2ccccc2Cl)NC(=O)[C@H](Cc2ccc(O)cc2)NC(=O)[C@H](CCC(N)=O)NC(=O)[C@H](CCCNC(N)=O)NC(=O)[C@@H](NC(=O)CCC(C)C)CSSC[C@@H](C(N)=O)NC(=O)[C@H](CC(C)C)NC1=O [UPAR-221, iHex-[Cys-Cit-Gln-Tyr-Ocf-Pro-ala-Ile-Leu-Cys]-NH2] ({Pentanoyl(4-Me)}-C[Cit]QY[Phe(2-Cl)]P[dA]ILC-NH2; disulfide 1-10) |  | ≤ 10 | < 1.58 |
| CCCCC(=O)N[C@H]1CSSC[C@@H](C(N)=O)NC(=O)[C@H](CCC)NC(=O)[C@H]([C@@H](C)CC)NC(=O)[C@@H]2C[C@@H](O)CN2C(=O)[C@@H]2CCCN2C(=O)[C@H](Cc2c[nH]c3ccccc23)NC(=O)[C@H](Cc2ccc(O)cc2)NC(=O)[C@H](CCC(N)=O)NC(=O)[C@H](CCCNC(=N)N)NC1=O [UPAR-308, Pent-[Cys-Arg-Gln-Tyr-Trp-Pro-Hyp-Ile-Nva-Cys]-NH2] (Pentanoyl-CRQYWP[Hyp]I[Nva]C-NH2; disulfide 1-10) |  | ≤ 10 | 1.58 to 10 |
| CCCCC(=O)N[C@H]1CSSC[C@@H](C(N)=O)NC(=O)[C@H](CCC)NC(=O)[C@H]([C@@H](C)CC)NC(=O)[C@@H]2C[C@@H](O)CN2C(=O)[C@@H]2CCCN2C(=O)C2(Cc3ccccc3C2)NC(=O)[C@H](Cc2ccc(O)cc2)NC(=O)[C@H](CCCCNC(=O)CN2CCN(CC(=O)O)CCN(CC(=O)O)CCN(CC(=O)O)CC2)NC(=O)[C@H](CCCNC(N)=O)NC1=O [UPAR-417, Pent-[Cys-Cit-Lys(DOTA)-Tyr-Aic-Pro-Hyp-Ile-Nva-Cys]-NH2] (Pentanoyl-C[Cit]K(DOTA)Y[Aic]P[Hyp]I[Nva]C-NH2; disulfide 1-10) | > 100 | ≥ 126 |  |
| CC[C@@H]1NC(=O)[C@H]([C@@H](C)CC)NC(=O)[C@@H](C)NC(=O)[C@@H]2CCCN2C(=O)[C@H](Cc2ccccc2)NC(=O)[C@H](Cc2ccc(O)cc2)NC(=O)[C@H](CCC(N)=O)NC(=O)[C@H](CCCNC(N)=O)NC(=O)[C@@H](NC(=O)CCC(C)C)CSSC[C@@H](C(N)=O)NC1=O [UPAR-451, iHex-[Cys-Cit-Gln-Tyr-Phe-Pro-ala-Ile-Abu-Cys]-NH2] ({Pentanoyl(4-Me)}-C[Cit]QYFP[dA]I[Abu]C-NH2; disulfide 1-10) | 1.58 to 10 | ≤ 10 |  |
| CCCCC(=O)N[C@H]1CSSC[C@@H](C(N)=O)NC(=O)[C@H](CCC)NC(=O)[C@H]([C@@H](C)CC)NC(=O)[C@@H]2C[C@@H](O)CN2C(=O)[C@@H]2CCCN2C(=O)[C@](C)(Cc2ccccc2)NC(=O)[C@H](Cc2ccc(O)cc2)NC(=O)[C@H](CCCCNC(=O)CN2CCN(CC(=O)O)CCN(CC(=O)O)CCN(CC(=O)O)CC2)NC(=O)[C@H](CCCNC(N)=O)NC1=O [UPAR-416, Pent-[Cys-Cit-Lys(DOTA)-Tyr-Amf-Pro-Hyp-Ile-Nva-Cys]-NH2] (Pentanoyl-C[Cit]K(DOTA)Y[αMeF]P[Hyp]I[Nva]C-NH2; disulfide 1-10) | > 100 | ≥ 126 |  |
